Data taken from publication PMC7371863, “Intracellular interplay between cholecystokinin and leptin signalling for satiety control in rats” (Scientific Reports, 2020).

Assays:
[1] = tested on: CCK-1 and CCK-2 receptors (C6 cells); experiment: Ca2+ imaging (Fura-2), CCK-8s response in C6 cells; type: cell-based, rat; conditions: CCK-8s 10 nM; n = 103/five dishes; Fura-2, 34°C, BSS pH 7.4
Protocol: (§1) Rat C6 glioma cells were cultured in Dulbecco’s Modified Eagle Medium/F12 (DMEM/F12) supplemented with 10% FBS, sodium bicarbonate (1.2 g/L), and 1% penicillin/streptomycin antibiotics at 37 °C in 5% CO2. The full-length mouse leptin receptor (ObRb) in pcDNA3.1 vector was kindly provided by Dr. Christian Bjørbaek (BIDMC, Harvard Medical School, Boston, MA, USA) and transfected using Lipofectamine 2000. Subsequently, the cells were cultured in medium containing 500 μg/mL G418 for cell selection.
(§2) C6 cells plated on 35 mm plastic dishes were gently rinsed with buffered salt solution (BSS) consisting of 130 mM NaCl, 5.4 mM KCl, 2 mM CaCl2, 1 mM MgCl2, 5.5 mM D-glucose, and 10 mM HEPES/NaOH (pH 7.4), and incubated in BSS supplemented with 6 µM Fura-2 AM (Dojindo Laboratories, Kumamoto, Japan) for 30 min in a CO2 incubator. Prior to photometry, the cells were rinsed again with BSS, incubated at 37°C for 15 min, and then continuously perfused with BSS at 34°C at a flow rate of 3 mL/min. Fluorescence images were obtained using an upright microscope (Axioplan2; Carl Zeiss, Thornwood, NY, USA) with a water-immersion objective (Achroplan×20 NA0.5w; Carl Zeiss). The wavelength of the excitation UV light (340 nm or 380 nm pulse; 250 msec) was switched using a filter wheel (Lambda 10-2; Sutter Instruments, Novato, CA, USA). […] The background fluorescence was also subtracted using the software. […]

[2] = tested on: primary cultures of rat nodose ganglion neurons; conditions: CCK-8s treatment, co-stimulation with leptin; cited from earlier work
Excerpt: An important observation in C6 models, other than intracellular Ca^2+ signalling, is the reduction in leptin-induced nuclear pSTAT3 accumulation by co-stimulation with CCK-8s. The level of pSTAT3 following co-stimulation with CCK-8s and leptin has been analyzed in primary cultures of rat nodose ganglion neurons[53],[54].

[3] = tested on: wild-type C6 cells; experiment: Ca2+ imaging (Fura-2), leptin and CCK-8s signalling interaction in wild-type C6 cells; type: cell-based, rat; conditions: leptin 100 nM
Protocol: as §1
C6 cells plated on 35 mm plastic dishes were gently rinsed with buffered salt solution (BSS) consisting of 130 mM NaCl, 5.4 mM KCl, 2 mM CaCl2, 1 mM MgCl2, 5.5 mM D-glucose, and 10 mM HEPES/NaOH (pH 7.4), and incubated in BSS supplemented with 6 µM Fura-2 AM (Dojindo Laboratories, Kumamoto, Japan) for 30 min in a CO2 incubator. Prior to photometry, the cells were rinsed again with BSS, incubated at 37°C for 15 min, and then continuously perfused with BSS at 34°C at a flow rate of 3 mL/min. Fluorescence images were obtained using an upright microscope (Axioplan2; Carl Zeiss, Thornwood, NY, USA) with a water-immersion objective (Achroplan×20 NA0.5w; Carl Zeiss). The wavelength of the excitation UV light (340 nm or 380 nm pulse; 250 msec) was switched using a filter wheel (Lambda 10-2; Sutter Instruments, Novato, CA, USA). The UV light was generated by a full spectrum 300W Xenon bulb (Lambda LS; Sutter Instruments), conducted to the microscope through a liquid light guide. The pair of fluorescent images was processed using a band-pass filter (485–515 nm) and exposed to a multiple format cooled CCD camera (CoolSnap-fx; Photometrics, Tucson, AZ, USA) at 6-sec intervals. The filter wheel and the CCD camera were controlled using digital imaging software (MetaFluor ver. 6.2; Japan Molecular Devices, Tokyo, Japan). The background fluorescence was also subtracted using the software.
During image acquisition, leptin (PeproTech, Rocky Hill, NJ, USA), CCK-4 (Peptide Institute, Inc., Osaka, Japan), CCK-8s (Sigma-Aldrich, St. Louis, MO, USA), AG490 (Calbiochem, San Diego, CA), LY294002 (Calbiochem), LY225910 (R&D Systems, Minneapolis, MN, USA), LGM (LKT Laboratories Inc., St. Paul, MN, USA), and ATP (Sigma-Aldrich) were applied by switching the perfusate. The magnitude of Ca^2+ responses was determined by peak area analysis using Origin 5.0 software (OriginLab, Northampton, MA, USA).

[4] = tested on: C6-ObRb cells (mouse leptin receptor ObRb); experiment: Ca2+ imaging (Fura-2) in C6 cells overexpressing mouse ObRb (C6-ObRb); type: cell-based, rat C6 cells
Protocol: as §1, §2

[5] = tested on: nucleus tractus solitarius; conditions: fourth ventricular injection of leptin; cited from earlier work
Excerpt: (§3) Also, the effect of CCK on satiety control is attenuated in Zucker fa/fa rats lacking functional leptin receptors. In addition, other evidence implicated that leptin-mediated satiety-controlling systems may strongly interact with CCK systems[18],[50]–[54]. For example, c-Fos expression in oxytocin neurons in the hypothalamic paraventricular nucleus is elevated by leptin administration, and these neurons have axons tha ...

[6] = tested on: oxytocin neurons in the hypothalamic paraventricular nucleus; conditions: leptin administration; cited from earlier work
Excerpt: as §3

[7] = tested on: cerebellar granule cell cultures; conditions: via MAPK pathways; cited from earlier work
Excerpt: (§4) A product of the obese gene, leptin, is a peptide hormone secreted from white adipocyte tissue, also known as a satiety-controller[31]–[33]. […] Splice variants (ObRa–ObRe) have been identified for leptin receptors and only the full-length isoform (ObRb) contains the intracellular motifs required for the initiation of intracellular signalling. ObRb is a single-transmembrane receptor that interacts with diverse signalling molecules[ ...

[8] = tested on: dissociated ARC neurons; conditions: cited from earlier work
Excerpt: as §4

[9] = tested on: hypothalamic astrocyte cultures; conditions: cited from earlier work
Excerpt: as §4

[10] = tested on: primary cultures of ventromedial hypothalamus (VMN and ARC neurons); conditions: depending on cell populations; cited from earlier work
Excerpt: as §4

[11] = tested on: cultured vagal afferent neurons; conditions: cited from earlier work
[12] = tested on: porcine adrenal medullary chromaffin cells; conditions: cited from earlier work
[13] = tested on: megakaryoblast cells; conditions: co-stimulation with leptin; cited from earlier work
Excerpt: It was previously shown that ADP-induced Ca^2+ mobilization, presumably via Gq-coupled P2Y receptor, was enhanced by co-stimulation with leptin in megakaryoblast cells. Since leptin could phosphorylate the tyrosine residue of Gqα protein by JAK2 (i.e., in AG490-dependent manner) in these cells, leptin could facilitate CCK receptor signalling similarly in C6 cells. […] Thus, further downstream signalling might also involve the activation of p ...

[14] = tested on: meal frequency / meal size; conditions: leptin; cited from earlier work
Excerpt: Although CCK and leptin have been commonly described as satiety controlling peptides, their differential roles have also been highlighted. […] Among the wide variety of intracellular signalling machineries linked to ObRb, it is still uncertain which pathway(s) is/are linked to what type of satiety controls. pSTAT3-ir is used as a genera ...

For CCK-8s [reference compound], the “C6 cells displaying Ca2+ transients on re-stimulation” value [1] is listed as 32% and the “total pSTAT3” value [2] is listed as “significant increase in pSTAT3”.

With “leptin: peptide hormone secreted from white adipocyte tissue, product of the obese gene; PeproTech Cat#450-31” the “Ca2+ transients by leptin treatment alone, wild-type C6 cells” value ([3]; 5 min or 500 nM, 5 min, n = 185/eight dishes) was “failed to evoke Ca^2+ transients”, the “amplification in the magnitude of CCK-8s-induced Ca2+ mobilization” value ([3]; 5 min pre-treatment, CCK-8s 10 nM, n = 115/five dishes) was ~ 5 times and the “magnitude of Ca2+ response by co-stimulation, C6-ObRb versus wild-type” value ([4]; leptin 100 nM and CCK-8s 10 nM, n = 84/four dishes, Student's t-test) was “not significantly different from that in wild-type C6 cells”. The “Ca2+ transients by leptin treatment alone, C6-ObRb” value ([4]; leptin 100 nM, 5 min or 500 nM, 5 min, n = 190/11 dishes) was “failed to evoke Ca^2+ transients”, the CCK-induced satiety response [5] was “enhanced the CCK-induced satiety response” and the “c-Fos expression in the nucleus tractus solitarius” value [5] was “failed to increase c-Fos expression”. For the same substance, the “c-Fos expression in oxytocin neurons” value [6] was “elevated”, the “action on N-methyl-D-aspartate-induced Ca2+ influx” value [7] was “excitatory actions” and the “ghrelin-induced Ca2+ elevation” value [8] was “inhibited”. For the same substance, the “cytosolic Ca2+ after leptin stimulation” value [9] was “monophasic cytosolic Ca^2+ elevation”, the “intrinsic Ca2+ oscillations” value [10] was “increased or decreased intrinsic Ca^2+ oscillations” and the “cytosolic Ca2+ after leptin stimulation” value [11] was “cytosolic Ca^2+ increase”. For the same substance, the “cytosolic Ca2+ after leptin stimulation” value [12] was “cytosolic Ca^2+ increase”, the “ADP-induced Ca2+ mobilization” value [13] was “enhanced” and the “meal size and meal frequency” value [14] was “reduces meal size but does not alter meal frequency”.
